From patent publication US9597330B2, “Drugs for treating respiratory diseases” (DAIICHI SANKYO COMPANY, LIMITED, priority 2013, dated 2017)

Molecular target: hNav 1.7 (Homo sapiens (Human), UniProt Q15858)
Assay: Electrophysiological evaluation, automated patch clamp (IonWorks Quattro, Population Patch Clamp mode)
Assay type: cell-based
Details: HEK293A cells stably expressing hNav 1.7/β1/β2; response to second depolarization pulse, pre-pulse potential set to V1/2; read-out: hNav1.7 IC50

Chain of hNav 1.7 (Q15858 whole entry): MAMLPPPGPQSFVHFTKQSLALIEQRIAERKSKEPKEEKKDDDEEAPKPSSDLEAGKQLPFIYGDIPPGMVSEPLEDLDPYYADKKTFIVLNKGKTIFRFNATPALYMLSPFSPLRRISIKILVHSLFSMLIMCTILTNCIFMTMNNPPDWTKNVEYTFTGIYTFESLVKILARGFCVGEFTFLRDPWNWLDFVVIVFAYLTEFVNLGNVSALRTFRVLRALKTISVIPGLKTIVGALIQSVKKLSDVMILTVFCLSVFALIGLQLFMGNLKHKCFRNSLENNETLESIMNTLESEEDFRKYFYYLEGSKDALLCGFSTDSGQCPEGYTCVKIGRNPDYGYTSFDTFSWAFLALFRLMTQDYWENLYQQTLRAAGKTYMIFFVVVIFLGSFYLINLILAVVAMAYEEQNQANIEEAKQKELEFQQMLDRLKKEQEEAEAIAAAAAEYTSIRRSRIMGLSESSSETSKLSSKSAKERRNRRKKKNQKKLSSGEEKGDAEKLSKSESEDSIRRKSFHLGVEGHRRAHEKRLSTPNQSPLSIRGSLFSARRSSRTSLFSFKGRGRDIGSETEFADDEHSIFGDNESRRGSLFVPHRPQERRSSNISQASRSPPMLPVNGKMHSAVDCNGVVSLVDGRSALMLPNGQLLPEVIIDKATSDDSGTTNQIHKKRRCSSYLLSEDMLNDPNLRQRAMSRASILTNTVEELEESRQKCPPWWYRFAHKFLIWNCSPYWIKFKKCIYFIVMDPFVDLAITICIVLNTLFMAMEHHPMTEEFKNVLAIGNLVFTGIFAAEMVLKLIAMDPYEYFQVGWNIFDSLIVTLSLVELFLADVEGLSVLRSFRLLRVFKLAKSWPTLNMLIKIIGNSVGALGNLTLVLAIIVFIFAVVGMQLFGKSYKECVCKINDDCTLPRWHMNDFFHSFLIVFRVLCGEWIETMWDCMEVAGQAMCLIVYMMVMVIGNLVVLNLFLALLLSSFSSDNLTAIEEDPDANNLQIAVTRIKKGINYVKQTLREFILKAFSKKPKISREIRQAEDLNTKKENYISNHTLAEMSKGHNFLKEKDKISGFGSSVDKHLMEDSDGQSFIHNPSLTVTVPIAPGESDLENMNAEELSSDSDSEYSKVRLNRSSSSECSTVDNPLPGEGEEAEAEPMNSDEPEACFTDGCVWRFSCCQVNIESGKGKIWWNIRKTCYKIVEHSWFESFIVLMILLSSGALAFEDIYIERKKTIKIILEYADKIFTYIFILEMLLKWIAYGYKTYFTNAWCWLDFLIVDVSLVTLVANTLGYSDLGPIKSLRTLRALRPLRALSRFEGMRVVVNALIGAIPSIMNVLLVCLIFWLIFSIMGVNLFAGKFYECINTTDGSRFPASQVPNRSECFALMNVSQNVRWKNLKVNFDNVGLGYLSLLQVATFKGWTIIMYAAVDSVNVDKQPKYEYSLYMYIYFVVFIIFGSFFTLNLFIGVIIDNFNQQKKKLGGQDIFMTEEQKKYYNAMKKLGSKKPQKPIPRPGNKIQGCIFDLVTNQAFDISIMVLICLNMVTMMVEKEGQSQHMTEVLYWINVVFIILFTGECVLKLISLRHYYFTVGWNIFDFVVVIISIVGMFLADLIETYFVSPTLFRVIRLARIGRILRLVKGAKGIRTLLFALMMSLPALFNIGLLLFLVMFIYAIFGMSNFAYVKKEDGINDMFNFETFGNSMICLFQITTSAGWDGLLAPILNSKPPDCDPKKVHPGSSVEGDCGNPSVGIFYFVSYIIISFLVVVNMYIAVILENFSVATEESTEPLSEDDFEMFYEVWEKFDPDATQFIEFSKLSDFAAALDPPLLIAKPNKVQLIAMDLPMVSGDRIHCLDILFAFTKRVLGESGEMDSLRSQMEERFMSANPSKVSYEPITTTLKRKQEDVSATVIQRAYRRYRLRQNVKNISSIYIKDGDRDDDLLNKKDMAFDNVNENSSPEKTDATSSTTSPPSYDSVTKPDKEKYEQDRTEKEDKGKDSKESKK
Chain of hNav 1.7 (Q07699 19-218 partner): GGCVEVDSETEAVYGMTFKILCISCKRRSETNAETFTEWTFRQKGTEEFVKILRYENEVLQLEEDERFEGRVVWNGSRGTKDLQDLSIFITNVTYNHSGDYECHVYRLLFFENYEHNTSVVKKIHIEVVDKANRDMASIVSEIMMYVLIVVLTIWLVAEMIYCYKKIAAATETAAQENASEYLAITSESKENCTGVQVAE
Chain of hNav 1.7 (O60939 30-215 partner): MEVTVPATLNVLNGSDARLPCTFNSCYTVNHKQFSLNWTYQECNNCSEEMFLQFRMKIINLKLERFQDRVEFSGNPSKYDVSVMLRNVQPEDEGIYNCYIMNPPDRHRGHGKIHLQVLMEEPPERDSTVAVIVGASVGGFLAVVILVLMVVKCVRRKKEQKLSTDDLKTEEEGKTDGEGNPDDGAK

Row | IC50 | Structure (SMILES)
1 | 91 nM | Cn1nccc1[C@H]1CCCCC[C@@H]1Oc1cc(F)c(S(=O)(=O)Nc2ccncn2)cc1F (relative stereo) [Compound 9, 2,5-Difluoro-4-{[(1S*,2R*)-2-(1-methyl-1H-pyrazol-5-yl)cycloheptyl]oxy}-N-(pyrimidin-4-yl)benzenesulfonamide]
2 | 37 nM | Cn1nccc1[C@H]1CCCCC[C@@H]1Oc1cc(F)c(S(=O)(=O)Nc2ccncn2)cc1Cl (relative stereo) [Compound 19, 5-Chloro-2-fluoro-4-{[(1S*,2R*)-2-(1-methyl-1H-pyrazol-5-yl)cycloheptyl]oxy}-N-(pyrimidin-4-yl)benzenesulfonamide]
